US20240391871A1, “SUBSTITUTED HYDROXYMETHYL PYRROLIDINES AND MEDICAL USES THEREOF” (ATROGI AB, priority 2021, published 2024)
Counter-ions that a name gives are not always drawn.

Columns and labels:
[1] = test system: Intracellular cAMP levels; test: Measurement of intracellular cAMP levels in differentiated L6 cells; assay type: cell-based; conditions: compound 1×10^−5 M, 15 min; for Emax at 10 µM: Rattus norvegicus, L6, 0.25 h, read-out: Biological example 2: intracellular cAMP levels, activity compared to that of isoproterenol
Method: (§1) L6-myoblasts were grown in Dulbecco's Modified Eagle's Medium (DMEM) containing 1 g/L glucose supplemented with 10% fetal bovine serum, 2 mM L-Glutamine, 50 U/mL penicillin, 50 μg/mL streptomycin and 10 mM HEPES. Cells were plated at 1×10^5 cells per mL in 24-well plates. After reaching 90% confluence the cells were grown in medium containing 2% FBS for 7 days where upon cells differentiated into myotubes.
Differentiated cells were serum-starved overnight and stimulated with an agonist, final concentration 1×10^−5 M, for 15 min in stimulation buffer (HBSS supplemented with 1% BSA, 5 mM HEPES and 1 mM IBMX, pH 7.4). The medium was aspirated and 100 μL of 95% EtOH was added to each well of the 24-well plate and cells were kept at −20° C. overnight. The EtOH was allowed to evaporate and 500 μL of lysis buffer (1% BSA, 5 mM HEPES and 0.3% Tween-20, pH 7.4) was added to each well. The plate was kept at −80° C. for 30 min and then at −20° C. until the day of detection when the samples were thawed. Intracellular cAMP levels were detected using an alpha screen cAMP kit (6760635D from Perkin Elmer). The activity for each compound is compared to that of isoproterenol.

L6-myotubes = test: Glucose uptake (3H-2-deoxyglucose) in differentiated L6-myotubes; assay type: cell-based; conditions: compound 1×10^−5 M; for Emax at 10 µM: read-out: Biological example 1: glucose uptake, activity compared to that of isoproterenol
Method: as §1
Differentiated L6-myotubes were serum-starved overnight in medium containing 0.5% fatty-acid free BSA and stimulated with an agonist, with a final concentration of 1×10^−5 M. After 1 h 40 min the cells were washed with warm glucose free medium or PBS twice and another portion of agonist was added to the glucose free medium. After 20 min the cells were exposed to 50 nM ^3H-2-deoxyglucose for 10 min before washed with ice cold glucose free medium or PBS three times and lysed with 0.2 M NaOH, 400 μL/well, for 1 h at 60° C. The cell lysate was mixed with 4 mL scintillation buffer (Emulsifier Safe, Perkin Elmer) and the radioactivity was detected in a β-counter (Tri-Carb 4810TR, Perkin Elmer). The activity for each compound is compared to that of isoproterenol.

Structure (SMILES)	Biological example 2: intracellular cAMP levels, activity compared to that of isoproterenol [1]	Biological example 1: glucose uptake, activity compared to that of isoproterenol (L6-myotubes)	Emax at 10 µM [1] [%]	Emax at 10 µM (L6-myotubes) [%]
CO[C@H]1CC[C@H](C[C@H]2CC[C@H]([C@@H](O)c3cccc(F)c3)N2)CC1.Cl [Example 4, (S)-(3-Fluorophenyl)((2R,5R)-5-(((1r,4R)-4-methoxycyclohexyl)-methyl) -pyrrolidin-2-yl)methanol hydrochloride]	− (less than 25%)	+ (between 50 and 25%)		
CO[C@H]1CC[C@H](C[C@@H]2CC[C@H]([C@H](O)c3ccccc3F)N2)CC1.Cl [Example 5, (R)-(2-Fluorophenyl)((2R,5S)-5-(((1r,4S)-4-methoxycyclohexyl)methyl-(pyrrolidin-2-yl)methanol hydrochloride]			< 25	> 75
CO[C@H]1CC[C@H](C[C@@H]2CC[C@H]([C@@H](O)c3ccccc3F)N2)CC1 [Example 6, (S)-(2-Fluorophenyl)((2R,5S)-5-(((1r,4S)-4-methoxycyclohexyl)methyl) -pyrrolidin-2-yl)methanol hydrochloride]			< 25	25 to 50
CO[C@H]1CC[C@H](C[C@H]2CC[C@H]([C@@H](O)c3ccccc3F)N2)CC1 [Example 8, (S)-(2-Fluorophenyl)((2R,5R)-5-(((1r,4S)-4-methoxycyclohexyl)methyl) -pyrrolidin-2-yl)methanol hydrochloride]			< 25	50 to 75
CO[C@H]1CC[C@H](C[C@@H]2CC[C@H]([C@H](O)c3cncc(F)c3)N2)CC1 [Example 9, (R)-(5-Fluoropyridin-3-yl)(2R,5S)-5-(((1r,4S)-4-methoxycyclohexyl)methyl) -pyrrolidin-2-yl)methanol dihydrochloride]			< 25	25 to 50
CO[C@H]1CC[C@H](C[C@@H]2CC[C@H]([C@@H](O)c3cncc(F)c3)N2)CC1 [Example 10, (S)-(5-Fluoropyridin-3-yl)((2R,5S)-5-(((1r,4S)-4-methoxycyclohexyl) -methyl)pyrrolidin-2-yl)methanol dihydrochloride]			< 25	25 to 50
CO[C@H]1CC[C@H](C[C@H]2CC[C@H]([C@H](O)c3cncc(F)c3)N2)CC1 [Example 11, (R)-(5-Fluoropyridin-3-yl)((2R,5R)-5-(((1r,4S)-4-methoxycyclohexyl) -methyl)pyrrolidin-2-yl)methanol dihydrochloride]			< 25	> 75
CO[C@H]1CC[C@H](C[C@H]2CC[C@H]([C@@H](O)c3cncc(F)c3)N2)CC1 [Example 12, (S)-(5-Fluoropyridin-3-yl)(2R,5R)-5-(((1r,4S)-4-methoxycyclohexyl) -methyl)pyrrolidin-2-yl)methanol dihydrochloride]			< 25	25 to 50
COc1ccc(C[C@@H]2CC[C@H]([C@H](O)c3cccc(F)c3)N2)cc1 [Example 13, (R)-(3-Fluorophenyl)((2R,5S)-5-(4-methoxybenzyl)pyrrolidin-2-yl)methanol]			< 25	> 75
COc1ccc(C[C@@H]2CC[C@H]([C@@H](O)c3cccc(F)c3)N2)cc1 [Example 14, (S)-(3-Fluorophenyl)((2R,5S)-5-(4-methoxybenzyl)pyrrolidin-2-yl)methanol hydrochloride]			< 25	> 75
COc1ccc(C[C@H]2CC[C@H]([C@H](O)c3cccc(F)c3)N2)cc1 [Example 15, (R)-(3-Fluorophenyl)((2R,5R)-5-(4-methoxybenzyl)pyrrolidin-2-yl)methanol]			< 25	> 75
COc1ccc(C[C@H]2CC[C@H]([C@@H](O)c3cccc(F)c3)N2)cc1 [Example 16, (S)-(3-Fluorophenyl)((2R,5R)-5-(4-methoxybenzyl)pyrrolidin-2-yl)methanol]			< 25	50 to 75
